Values quoted from earlier work, collected in paper PMC7465636 (Biomolecules, 2020).

Legend:
[1] = system: P. falciparum D10; settings: cited from earlier work
[2] = system: P. falciparum Dd2; settings: cited from earlier work
[3] = system: P. falciparum W2; settings: cited from earlier work
[4] = system: knockout of P. falciparum PfSR25; parameters: method as in PMID 28842684; settings: knockout versus wild type; cited from earlier work

| SMILES | IC50 [1] | IC50 [2] | IC50 [3] | susceptibility of PfSR25 knockout parasite to the drug [4] |
| --- | --- | --- | --- | --- |
| CN(C)C(Cn1cc(-c2ccccc2)nn1)NCc1ccccc1Cl (stereo not drawn) [II] | 11.3 µM | 13 µM |  |  |
| O=C(Cn1cc(CNc2ccnc3cc(Cl)ccc23)nn1)N1CCCCC1 [IV] | 0.0136 µM | 0.0434 µM |  |  |
| COc1cc([N+](=O)[O-])ccc1-n1cc(COC2=C(CC=C(C)C)C(=O)C=C(C)C2=O)nn1 [V] |  |  | 4.1 µM |  |
| Clc1ccc2c(N3CCN(CCCN4CCN(c5ccnc6cc(Cl)ccc56)CC4)CC3)ccnc2c1 [piperaquine] |  |  |  | more susceptible |
